Inconclusive results are not listed. Active and inactive are the calls of the source.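 The calls were made as follows: active = fitted curve of rescue activity rises past 40% within the tested concentration range, in every replicate run; inconclusive = replicate runs disagree, some active and some not; inactive = all replicate runs inactive, including effects in the opposite direction.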
Test system: not listed separately
Assay: rescue of simvastatin myotoxicity in C2C12 – cell-based, differentiated C2C12, luminescence, dry powder, dose response (AID 743336)
Conditions: C2C12 myotubes + simvastatin, ATP luminescence, 48 h; at 18 µM (top of the series)
With C[C@H](CO)N1C[C@H](C)[C@H](CN(C)Cc2ccc3c(c2)OCO3)Oc2ccc(NC(=O)CCCCCC(=O)Nc3ccccc3N)cc2CC1=O the rescue activity was 27.2% (inactive).

Same assay, conditions: C2C12 myotubes + simvastatin, ATP luminescence, 48 h; at 19.5 µM (top of the series)
For CCCNC(=O)N1[C@H](C#N)[C@@H](c2ccc(C3=CCCCC3)cc2)[C@@H]1CO, the rescue activity was 37.4% (inactive).
In the case of C[C@H]1CN([C@@H](C)CO)S(=O)(=O)c2ccc(C#CC3CC3)cc2O[C@H]1CN(C)C(=O)Nc1cc(F)ccc1F, the rescue activity is reported as 23.2% (inactive).
With C/C=C/c1ccc([C@H]2[C@@H](CO)N(C(=O)NC3CCCC3)[C@H]2C#N)cc1 the rescue activity was 5.47% (inactive).
With CN(C)C(=O)c1cccc(-c2ccc([C@@H]3[C@@H](C#N)N(C(=O)C4CCCC4)[C@@H]3CO)cc2)c1 the rescue activity was 11.9% (inactive).
In the case of C[C@H](CO)N1C[C@H](C)[C@@H](CN(C)Cc2ccc(Oc3ccccc3)cc2)Oc2c(NC(=O)Nc3cccc4ccccc34)cccc2C1=O, the rescue activity is reported as 26.8% (inactive).
For N#C[C@@H]1[C@@H](c2ccc(-c3cccc(F)c3)cc2)[C@@H](CO)N1C(=O)NC1CCCC1, the rescue activity was 9.41% (inactive).
In the case of N#C[C@@H]1[C@@H](c2ccc(C#Cc3cccnc3)cc2)[C@@H](CO)N1C(=O)C1CCCC1, the rescue activity is reported as -15.7% (inactive).
With COc1ccc(-c2ccc([C@@H]3[C@@H](C#N)N(C(=O)NC4CCCC4)[C@H]3CO)cc2)cc1 the rescue activity was 12.8% (inactive).
With N#C[C@H]1[C@H](c2ccc(C#CCC3CCCC3)cc2)[C@@H](CO)N1C(=O)CN1CCOCC1 the rescue activity was 28.6% (inactive).
For C[C@@H]1CN([C@H](C)CO)C(=O)Cc2cc(NC(=O)C3CCCCC3)ccc2O[C@H]1CN(C)Cc1ccc(Cl)c(Cl)c1, the rescue activity was 24.8% (inactive).
For C[C@@H]1CN([C@H](C)CO)C(=O)Cc2cc(NC(=O)CCCCCC(=O)Nc3ccccc3N)ccc2O[C@H]1CN(C)Cc1ccc(Oc2ccccc2)cc1, the rescue activity was 30.8% (inactive).
For N#C[C@@H]1[C@@H](c2ccc(C3=CCCCC3)cc2)[C@H](CO)N1C(=O)NC1CCCC1, the rescue activity was 33.7% (inactive).
For COc1ccc(S(=O)(=O)N(C)C[C@H]2Oc3c(NC(=O)Nc4ccccc4)cccc3C(=O)N([C@H](C)CO)C[C@H]2C)cc1, the rescue activity was 29.2% (inactive).
In the case of C[C@H](CO)N1C[C@H](C)[C@H](CN(C)Cc2ccc(C(=O)Nc3ccccc3N)cc2)Oc2ccc(N(C)C)cc2C1=O, the rescue activity is reported as 6.09% (inactive).
For COc1ccc(C#Cc2cnc3c(c2)C(=O)N([C@H](C)CO)C[C@H](C)[C@H](CN(C)Cc2ccccc2)O3)cc1OC, the rescue activity was 32.2% (inactive).
In the case of N#C[C@H]1[C@H](c2ccc(C#Cc3ccc(F)cc3)cc2)[C@H](CO)N1c1nc(-c2ccccc2)cs1, the rescue activity is reported as 38.1% (inactive).
In the case of CCCC#Cc1ccc([C@H]2[C@@H](C#N)N(S(=O)(=O)c3cccc(F)c3)[C@H]2CO)cc1, the rescue activity is reported as 3.48% (inactive).
In the case of N#C[C@H]1[C@@H](c2ccc(-c3cccc(F)c3)cc2)[C@H](CO)N1C(=O)NC1CCCC1, the rescue activity is reported as -7.45% (inactive).
For N#C[C@@H]1[C@@H](c2ccccc2-c2cccc(F)c2)[C@H](CO)N1C(=O)NC1CCCC1, the rescue activity was 35.9% (inactive).
For O=C(C[C@H]1CC[C@@H]2[C@H](COC[C@H](O)CN2CCC(F)(F)F)O1)NCc1ccc(Oc2ccccc2)cc1, the rescue activity was 23.4% (inactive).
For CCCNC(=O)N1[C@H](CO)[C@H](c2ccccc2)[C@@H]1C#N, the rescue activity was -1.71% (inactive).
With CN1C(=O)c2cc(NC(=O)c3ccc(F)c(F)c3)ccc2OC[C@H]2O[C@@H](CC(=O)Nc3ccc4c(c3)COC4)CC[C@@H]21 the rescue activity was 29.3% (inactive).
With C[C@@H]1CN([C@@H](C)CO)C(=O)c2cc(NC(=O)Cc3cn(C)c4ccccc34)ccc2O[C@H]1CN(C)Cc1ccc(C(=O)Nc2ccccc2N)cc1 the rescue activity was 29.3% (inactive).
In the case of Cc1ccc(S(=O)(=O)N(C)C[C@@H]2Oc3ccc(NS(=O)(=O)c4ccc(Cl)cc4)cc3C(=O)N([C@H](C)CO)C[C@@H]2C)cc1, the rescue activity is reported as 27.2% (inactive).
With N#C[C@@H]1[C@@H](c2ccc(-c3cccc(F)c3)cc2)[C@H](CO)N1C(=O)c1cccnc1 the rescue activity was 7.76% (inactive).
For N#C[C@@H]1[C@@H](c2ccc(-c3ccc(F)cc3)cc2)[C@H](CO)N1C(=O)Cc1ccccc1, the rescue activity was 37.6% (inactive).
With N#C[C@H]1[C@@H](c2ccc(-c3cccc(F)c3)cc2)[C@@H](CO)N1C(=O)NC1CCCC1 the rescue activity was 5.12% (inactive).
For C[C@@H]1CN([C@H](C)CO)C(=O)c2cccc(NC(=O)c3nc4ccccc4s3)c2O[C@@H]1CN(C)Cc1ccc(C(=O)Nc2ccccc2N)cc1, the rescue activity was -3.35% (inactive).
With C[C@@H]1CN([C@H](C)CO)C(=O)Cc2cc(NS(=O)(=O)c3cn(C)cn3)ccc2O[C@@H]1CN(C)Cc1ccc(Cl)c(Cl)c1 the rescue activity was 34.3% (inactive).
In the case of N#C[C@@H]1[C@H](c2ccc(-c3cccc(F)c3)cc2)[C@H](CO)N1C(=O)NC1CCCC1, the rescue activity is reported as -9.1% (inactive).
In the case of N#C[C@@H]1[C@@H](c2ccccc2-c2ccc(F)cc2)[C@H](CO)N1C(=O)NC1CCCC1, the rescue activity is reported as 35.5% (inactive).
For N#C[C@H]1[C@H](c2ccc(-c3cccc(F)c3)cc2)[C@@H](CO)N1C(=O)NC1CCCC1, the rescue activity was 33.1% (inactive).
For O=C(C[C@H]1CC[C@@H]2[C@H](COC[C@@H](O)CN2Cc2ccc(Oc3ccccc3)cc2)O1)N1CCCCC1, the rescue activity was 22.2% (inactive).
With N#C[C@H]1[C@H](c2ccc(-c3cccc(F)c3)cc2)[C@H](CO)N1C(=O)NC1CCCC1 the rescue activity was 29.9% (inactive).
For N#C[C@@H]1[C@H](c2ccc(-c3cccc(F)c3)cc2)[C@@H](CO)N1C(=O)NC1CCCC1, the rescue activity was -10.7% (inactive).
For C[C@H]1CN([C@@H](C)CO)C(=O)c2cc(C#Cc3ccncc3)cnc2O[C@@H]1CN(C)CC1CCCC1, the rescue activity was 20.2% (inactive).
In the case of C[C@H]1CN([C@@H](C)CO)C(=O)c2cc(N(C)C)ccc2O[C@@H]1CN(C)Cc1ccc(C(=O)Nc2ccccc2N)cc1, the rescue activity is reported as 28.1% (inactive).
With C[C@@H]1CN([C@H](C)CO)C(=O)Cc2cc(NC(=O)CCCCCC(=O)Nc3ccccc3N)ccc2O[C@@H]1CN(C)Cc1ccc(Oc2ccccc2)cc1 the rescue activity was -50.8% (inactive).
In the case of C[C@H](CO)N1C[C@H](C)[C@H](CN(C)Cc2ccc(C(=O)Nc3ccccc3N)cc2)Oc2ccc(NC(=O)Nc3ccc(F)cc3)cc2CC1=O, the rescue activity is reported as -62.1% (inactive).

Same assay, conditions: C2C12 myotubes + simvastatin, ATP luminescence, 48 h; at 21 µM (top of the series)
For N#C[C@H]1N[C@@H](CO)[C@@H]1c1ccc(-c2cccc(F)c2)cc1, the rescue activity was 0.836% (inactive).
With C[C@@H]1CN([C@@H](C)CO)C(=O)Cc2cc(NC(=O)CCCCCC(=O)Nc3ccccc3N)ccc2O[C@@H]1CN(C)Cc1ccc(Oc2ccccc2)cc1 the rescue activity was -22.1% (inactive).
In the case of C[C@H]1CN([C@@H](C)CO)C(=O)Cc2cc(NC(=O)CCCCCC(=O)Nc3ccccc3N)ccc2O[C@@H]1CN(C)Cc1ccc(Oc2ccccc2)cc1, the rescue activity is reported as 20% (inactive).
For COCC(=O)N1[C@H](C#N)[C@@H](c2ccc(-c3cccc(F)c3)cc2)[C@@H]1CO, the rescue activity was 7.78% (inactive).
With C[C@H](CO)N1C[C@H](C)[C@H](CN(C)Cc2ccc(Oc3ccccc3)cc2)Oc2ccc(NC(=O)CCCCCC(=O)Nc3ccccc3N)cc2CC1=O the rescue activity was -22.7% (inactive).
For C[C@H]1CN([C@@H](C)CO)C(=O)Cc2cc(NS(=O)(=O)c3ccc(Cl)cc3)ccc2O[C@@H]1CN(C)CC1CCCCC1, the rescue activity was 3.09% (inactive).
With CCCNC(=O)N1[C@@H](C#N)[C@@H](c2ccc(-c3ccccc3F)cc2)[C@@H]1CO the rescue activity was -7.41% (inactive).
For C[C@H]1CN([C@@H](C)CO)C(=O)Cc2cc(NC(=O)CCCCCC(=O)Nc3ccccc3N)ccc2O[C@H]1CN(C)Cc1ccc(C(F)(F)F)cc1, the rescue activity was 44.5% (inactive).
In the case of CC(C)CC#Cc1cnc2c(c1)C(=O)N([C@H](C)CO)C[C@H](C)[C@@H](CN(C)C(=O)Cc1ccccc1)O2, the rescue activity is reported as -0.381% (inactive).
In the case of CCS(=O)(=O)N1[C@H](C#N)[C@@H](c2ccc(-c3cccc(F)c3)cc2)[C@@H]1CO, the rescue activity is reported as 10.1% (inactive).

Test system: C2C12 myotubes + simvastatin, ATP luminescence, 48 h
Assay: as above
Conditions: not given
COc1ccc(S(=O)(=O)Nc2cccc3c2O[C@H](CN(C)C(=O)Nc2ccc(F)cc2)[C@H](C)CN([C@@H](C)CO)C3=O)cc1 gave an AC40 of 14.5 µM.
With C[C@H]1CN([C@@H](C)CO)S(=O)(=O)c2ccc(C#Cc3ccc(F)cc3)cc2O[C@@H]1CN(C)S(=O)(=O)c1cn(C)cn1 the AC40 was 18.9 µM.
Compound N#C[C@@H]1[C@@H](c2ccc(C#CC3CCCC3)cc2)[C@H](CO)N1S(=O)(=O)c1ccccc1 has an AC40 of 20 µM.
Cc1noc(C)c1S(=O)(=O)Nc1ccc2c(c1)CC(=O)N([C@H](C)CO)C[C@@H](C)[C@@H](CN(C)Cc1ccc(-c3ccccc3)cc1)O2 showed an AC40 of 13.9 µM.
With C[C@@H]1CN([C@@H](C)CO)C(=O)c2cc(NS(=O)(=O)c3ccc(Cl)cc3)ccc2O[C@H]1CN(C)C(=O)Nc1cccc2ccccc12 the AC40 was 14.6 µM.
C[C@H]1CN([C@@H](C)CO)C(=O)c2cc(NC(=O)Nc3cccc4ccccc34)ccc2O[C@H]1CN(C)Cc1ccc(C(=O)Nc2ccccc2N)cc1 gave an AC40 of 13.5 µM.
With C[C@H]1CN([C@@H](C)CO)C(=O)Cc2cc(NC(=O)CCCCCC(=O)Nc3ccccc3N)ccc2O[C@H]1CN(C)Cc1ccccc1 the AC40 was 13.8 µM.
Compound N#C[C@@H]1[C@@H](c2ccccc2)[C@H](CO)N1S(=O)(=O)c1ccc(-c2ccccc2)cc1 has an AC40 of 10.6 µM.
C[C@@H]1CN([C@H](C)CO)C(=O)c2cc(NC(=O)Nc3cccc4ccccc34)ccc2O[C@@H]1CN(C)Cc1ccc(C(=O)Nc2ccccc2N)cc1 showed an AC40 of 15.9 µM.
Compound C[C@H]1CN([C@@H](C)CO)C(=O)Cc2cc(NC(=O)Nc3cccc4ccccc34)ccc2O[C@H]1CN(C)Cc1ccc(C(=O)Nc2ccccc2N)cc1 has an AC40 of 9.64 µM.
In the case of C[C@H](CO)N1C[C@H](C)[C@H](CN(C)CC2CCCCC2)Oc2ccc(NC(=O)CCCCCC(=O)Nc3ccccc3N)cc2CC1=O, the AC40 is reported as 9.21 µM.
With Cc1ccc(S(=O)(=O)Nc2ccc3c(c2)CC(=O)N([C@@H](C)CO)C[C@@H](C)[C@H](CN(C)Cc2ccc(-c4ccccc4)cc2)O3)cc1 the AC40 was 17.5 µM.
CC(C)=CCC/C(C)=C/CC/C(C)=C/CC/C(C)=C/CO gave an AC40 of 4.38 µM.
For Cc1noc(C)c1S(=O)(=O)Nc1ccc2c(c1)CC(=O)N([C@H](C)CO)C[C@H](C)[C@@H](CN(C)Cc1ccc(C(F)(F)F)cc1)O2, the AC40 was 16 µM.
Work on C[C@@H]1CN([C@@H](C)CO)C(=O)c2cccc(NC(=O)Nc3ccc4c(c3)OCO4)c2O[C@H]1CN(C)Cc1ccc(C(=O)Nc2ccccc2N)cc1 yielded an AC40 of 16.2 µM.
